Laboratory results published in US7910600B2, “Therapeutic kinase modulators” (Cylene Pharmaceuticals, Inc., priority 2007, dated 2011).

Columns and labels:
[1] = tested on: MiaPaca human pancreatic carcinoma cells; test: Cell proliferation assay (Alamar Blue), MiaPaCa; assay type: cell-based; conditions: MIA PaCa-2, MiaPaCa cell line
Protocol: (§1) A representative cell-proliferation assay protocol using Alamar Blue dye (stored at 4° C., use 20 ul per well) is described hereafter.
(§2) 96-Well Plate Setup and Compound Treatment
(§3) • a. Split and trypsinize cells. • b. Count cells using hemocytometer. • c. Plate 4,000-5,000 cells per well in 100 μl of medium and seed into a 96-well plate according to the following plate layout. Add cell culture medium only to wells B10 to B12. Wells B1 to B9 have cells but no compound added.
(§4) • d. Add 100 μl of 2× drug dilution to each well in a concentration shown in the plate layout above. At the same time, add 100 μl of media into the control wells (wells B10 to B12). Total volume is 200 μl/well. • e. Incubate four (4) days at 37° C., 5% CO2 in a humidified incubator. • f. Add 20 μl Alamar Blue reagent to each well. • g. Incubate for four (4) hours at 37° C., 5% CO2 in a humidified incubator. • h. Record fluorescence at an excitation wavelength of 544 nm and emission wavelength of 590 nm using a microplate reader.
(§5) In the assays, cells are cultured with a test compound for approximately four days, the dye is then added to the cells and fluorescence of […] dye is detected after approximately four hours. Different types of cells can be utilized in the assays (e.g., HCT-116 human colorectal carcinoma cells, PC-3 human prostatic cancer cells and MiaPaca human pancreatic carcinoma cells).

[2] = tested on: PanC1; test: Cell proliferation assay (Alamar Blue), PanC1; assay type: cell-based; conditions: Homo sapiens, PANC-1; PanC1 cell line
Protocol: as §1, §2, §3, §4, §5

[3] = tested on: HCT-116 human colorectal carcinoma cells; test: Cell proliferation assay (Alamar Blue), HCT-116; assay type: cell-based; conditions: HCT-116 cell line
Protocol: as §1, §2, §3, §4, §5

[4] = biological target: T1, recombinant human CK2 (Homo sapiens, UniProt P68400); test: Cell-free CK2 assay; assay type: biochemical; conditions: for inhibition at 0.5 µM: read-out: CK2: % inh 500 nM
T1 construct: purchased Upstate
T1 sequence (P68400 whole entry): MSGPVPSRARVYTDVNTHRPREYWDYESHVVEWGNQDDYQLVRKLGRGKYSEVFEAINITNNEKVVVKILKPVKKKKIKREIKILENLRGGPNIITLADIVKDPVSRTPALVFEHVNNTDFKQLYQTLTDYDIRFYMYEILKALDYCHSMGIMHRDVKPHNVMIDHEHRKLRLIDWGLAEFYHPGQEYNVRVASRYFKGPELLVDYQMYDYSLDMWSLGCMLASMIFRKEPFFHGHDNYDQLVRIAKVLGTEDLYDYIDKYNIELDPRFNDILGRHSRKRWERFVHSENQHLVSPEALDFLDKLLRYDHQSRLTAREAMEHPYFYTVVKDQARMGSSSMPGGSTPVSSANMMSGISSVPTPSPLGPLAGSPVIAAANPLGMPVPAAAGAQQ
T1 sequence (P67870 whole entry partner): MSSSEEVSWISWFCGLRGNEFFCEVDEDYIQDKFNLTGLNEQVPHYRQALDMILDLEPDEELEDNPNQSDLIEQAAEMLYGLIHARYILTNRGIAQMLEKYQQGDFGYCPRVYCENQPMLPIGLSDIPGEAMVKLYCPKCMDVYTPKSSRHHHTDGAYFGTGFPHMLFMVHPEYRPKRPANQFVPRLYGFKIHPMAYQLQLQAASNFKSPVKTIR
Protocol: Modulatory activity of compounds described herein is assessed in vitro in cell-free CK2 assays. These assays are described hereafter.
Test compounds in aqueous solution are added at a volume of 10 microliters, to a reaction mixture comprising 10 microliters Assay Dilution Buffer (ADB; 20mM MOPS, pH 7.2, 25 mM beta-glycerolphosphate, 5 mM EGTA, 1 mM sodium orthovanadate and 1 mM dithiothreitol), 10 microliters of substrate peptide (RRRDDDSDDD (SEQ ID NO:4), dissolved in ADB at a concentration of 1 mM), 10 microliters of recombinant human CK2 (25 ng dissolved in ADB; Upstate). Reactions are initiated by the addition of 10 microliters of ATP Solution (90% 75 mM MgC12, 75 micromolar ATP dissolved in ADB; 10% [γ-^33P]ATP (stock 1 mCi/100 μl; 3000 Ci/mmol (Perkin Elmer) and maintained for 10 minutes at 30 degrees C. The reactions are quenched with 100 microliters of 0.75% phosphoric acid, then transferred to and filtered through a phosphocellulose filter plate (Millipore). After washing each well 5 times with 0.75% phosphoric acid, the plate is dried under vacuum for 5 min and, following the addition of 15 ul of scintillation fluid to each well, the residual radioactivity is measured using a Wallac […].

[5] = tested on: MDA-MB231; test: Cell proliferation assay (Alamar Blue), MDA-MB231; assay type: cell-based; conditions: Homo sapiens, MDA-MB-231; MDA-MB231 cell line
Protocol: as §1, §2, §3, §4, §5

[6] = tested on: Jurkat; test: Cell proliferation assay (Alamar Blue), Jurkat; assay type: cell-based; conditions: Homo sapiens; Jurkat cell line
Protocol: as §1, §2, §3, §4, §5

[7] = tested on: BxPC3; test: Cell proliferation assay (Alamar Blue), BxPC3; assay type: cell-based; conditions: Homo sapiens, BXPC-3; BxPC3 cell line; read-out: Bx-PC3
Protocol: as §1, §2, §3, §4, §5

[8] = tested on: MV-4-11; test: Cell proliferation assay (Alamar Blue), MV-4-11; assay type: cell-based; conditions: Homo sapiens, MV4-11; MV-4-11 cell line
Protocol: as §1, §2, §3, §4, §5

[9] = tested on: K562; test: Cell proliferation assay (Alamar Blue), K562; assay type: cell-based; conditions: Homo sapiens; K562 cell line
Protocol: as §1, §2, §3, §4, §5

[10] = tested on: PC-3 human prostatic cancer cells; test: Cell proliferation assay (Alamar Blue), PC3; assay type: cell-based; conditions: PC3 cell line
Protocol: as §1, §2, §3, §4, §5

SMILES	IC50 [1] [µM]	IC50 [2] [µM]	IC50 [3] [µM]	inhibition at 0.5 µM [4] [%]	IC50 [5] [µM]	IC50 [6] [µM]	IC50 [7] [µM]	IC50 [4] [µM]	IC50 [8] [µM]	IC50 [9] [µM]	IC50 [10] [µM]
O=C(NC1CC1)c1ccc2c(c1)nc(-c1ccccc1)c1nc(NC3CC3)ncc12 [N-cyclopropyl-3-(cyclopropylamino)-5-phenylpyrimido[4,5-c]quinoline-8-carboxamide]	58.4	30.2	0.8	-4	> 62.5	0.6	1.2	–	–	–	–
O=C(O)c1ccc2c(c1)nc(-c1ccsc1)c1ccncc12	> 10	–	> 30	98	> 10	–	> 10	0.004	13.3	0.2	> 10
O=C(O)c1ccc2c(c1)nc(-c1ccc(Cl)cc1)c1ccncc12	> 10	–	> 10	98	> 10	–	> 10	0.007	> 10	> 10	> 10
O=C(O)c1ccc2c(c1)nc(-c1ccc(F)cc1)c1ccncc12	> 30	–	> 10	98	–	–	–	0.033	7	1	> 10
O=C(O)c1ccc2c(c1)nc(-c1cccc(F)c1)c1ccncc12	> 10	–	> 10	98	0.2	–	–	0.029	1.4	> 10	> 10

The next compounds have a lower IC50 [1] than those just listed; values first:

IC50 [1] [µM]	IC50 [2] [µM]	IC50 [3] [µM]	inhibition at 0.5 µM [4] [%]	IC50 [5] [µM]	IC50 [6] [µM]	IC50 [7] [µM]	IC50 [4] [µM]	IC50 [8] [µM]	IC50 [9] [µM]	IC50 [10] [µM]	SMILES
3.7	15.9	2.9	99	11.1	1.5	4.5	0.093	–	–	–	O=C(O)c1ccc2c(c1)nc(-c1ccccc1)c1nc(NC3CC3)ncc12 [3-(cyclopropylamino)-5-phenylpyrimido[4,5-c]quinoline-8-carboxylic acid]
2.8	> 30	4.3	0	> 30	1.6	5.9	–	–	–	–	Cn1cc(-c2nc3cc(C(=O)NC4CC4)ccc3c3cnc(NC4CC4)nc23)cn1
0.9	> 30	> 10	101	> 30	3.6	13.6	0.004	0.6	0.6	–	Cn1cc(-c2nc3cc(C(=O)O)ccc3c3cnc(NC4CC4)nc23)cn1
